Experimental data from US5824771A, “Cyclic CRF agonists” (The Salk Institute for Biological Studies, priority 1997, dated 1998).
Bridge positions count the residues as written; N and C are the ends. Square brackets hold non-standard residues; d marks the D form. Ends that are not written are not given here. Peptide text beside a SMILES is read from it. Nle = CCCC[C@H](N)C(=O)O

Key:
[1] = Relief of inflammation on administration; type: in vivo; conditions: administration of the peptide
[2] = system: rat anterior pituitary cells; assay: In vitro stimulation of ACTH and β-endorphin secretion by cultured rat pituitary cells, potency compared with oCRF (Standard) or r/hCRF; type: cell-based; conditions: for stimulation of secretion of ACTH and β-END-LI (testing by the general procedure), in words: general procedure of Example 1; for in vitro potency to stimulate secretion of ACTH relative to the Standard: relative to the laboratory Standard (synthetic oCRF), cultured rat pituitary cells, limits in parentheses; for in vitro biopotency, comparison in words: compared with the Standard or with a named analog
Procedure: (§1) The cyclic CRF agonists are examined for their effects on the secretion of ACTH and β-endorphin in vitro and also in vivo. […] In vivo testing is carried out using the general procedure set forth in C. Rivier et al., Science, 218, 377 (1982).

[3] = Lowering of blood pressure on peripheral or iv administration; type: in vivo; conditions: for lowering of blood pressure when administered peripherally, in words: peripheral administration; for lowering of blood pressure on iv injection, in words: iv injection / administered intravenously
[4] = system: ACTH and β-END-LI secretion; assay: Secretion of ACTH and β-END-LI on administration of the peptide (in vivo testing)
Procedure: as §1

CCCC[C@H](NC(=O)[C@H](CCC(=O)O)NC(=O)[C@@H](NC(=O)[C@H](CCCC)NC(=O)[C@H](CC(N)=O)NC(=O)[C@H](CCCNC(=N)N)NC(=O)[C@H](CC(C)C)NC(=O)[C@H](CC(C)C)NC(=O)[C@H](Cc1c[nH]cn1)NC(=O)[C@@H](Cc1ccccc1)NC(=O)[C@@H](NC(=O)[C@H](CC(C)C)NC(=O)[C@H](CC(=O)O)NC(=O)[C@@H](NC(=O)[C@H](CO)NC(=O)[C@@H](NC(=O)[C@H]1CCCN1C(=O)[C@@H]1CCCN1C(C)=O)[C@@H](C)CC)[C@@H](C)CC)[C@@H](C)O)[C@@H](C)CC)C(=O)N[C@@H](C)C(=O)N[C@@H](CCCNC(=N)N)C(=O)N[C@@H](CC(N)=O)C(=O)N[C@@H](CCC(=O)O)C(=O)N[C@@H](CC(N)=O)C(=O)N[C@@H](CCC(N)=O)C(=O)N[C@@H](CCCNC(=N)N)C(=O)N[C@@H](CCC(=O)O)C(=O)N[C@H]1CCC(=O)NCCCC[C@@H](C(=O)N[C@@H](CC(N)=O)C(=O)N[C@@H](CCCNC(=N)N)C(=O)N[C@@H](CCCCN)C(=O)N[C@@H](Cc2ccc(O)cc2)C(=O)N[C@@H](CC(C)C)C(=O)N[C@@H](CC(=O)O)C(=O)N[C@@H](CCC(=O)O)C(=O)N[C@H](C(N)=O)C(C)C)NC(=O)[C@@H](Cc2c[nH]cn2)NC(=O)[C@H](C)NC1=O [Example 8 A, (cyclo 30-33)[Ac-Pro^4, D-Pro^5, D-Phe^12, Nle^18,21, Glu^30, D-His^32, Lys^33]-Carp Urotensin I(4-41)] (Ac-P[dP]ISIDLT[dF]HLLRN[Nle]IE[Nle]ARNENQREEA[dH]KNRKYLDEV-NH2; lactam 27-30)
relief of inflammation, in words [1]: relieves inflammation

CCCC[C@H](NC(=O)[C@H](CCCCN)NC(=O)[C@H](C)NC(=O)[C@H](CCCNC(=N)N)NC(=O)[C@H](Cc1c[nH]cn1)NC(=O)[C@@H](NC(=O)[C@H](CCCC)NC(=O)[C@H](CC(N)=O)NC(=O)[C@H](CCCNC(=N)N)NC(=O)[C@H](CC(C)C)NC(=O)[C@H](CCCC)NC(=O)[C@H](Cc1c[nH]cn1)NC(=O)[C@@H](Cc1ccccc1)NC(=O)[C@@H](NC(=O)[C@H](CC(C)C)NC(=O)[C@H](CC(=O)O)NC(=O)[C@@H](NC(=O)[C@H](CO)NC(C)=O)[C@@H](C)CC)[C@@H](C)O)[C@@H](C)CC)C(=O)N[C@@H](CCC(=O)O)C(=O)NCC(=O)N[C@@H](CCC(=O)O)C(=O)N[C@@H](CCCNC(=N)N)C(=O)N[C@@H](CCC(=O)O)C(=O)N[C@H]1CCC(=O)NCCCC[C@@H](C(=O)N[C@@H](CC(N)=O)C(=O)N[C@@H](CCCNC(=N)N)C(=O)N[C@@H](CC(N)=O)C(=O)N[C@@H](CC(C)C)C(=O)N[C@@H](CC(C)C)C(=O)N[C@@H](CC(=O)O)C(=O)N[C@@H](CCC(=O)O)C(=O)N[C@H](C(N)=O)C(C)C)NC(=O)[C@@H](CCC(N)=O)NC(=O)[C@H](C)NC1=O [Example 16 H, (cyclo 30-33)[Ac-Ser^7, D-Phe^12, Nle^14,18,24, Glu^30, D-Gln^32, Lys^33]-flounder urotensin(7-41)] (Ac-SIDLT[dF]H[Nle]LRN[Nle]IHRAK[Nle]EGEREEA[dQ]KNRNLLDEV-NH2; lactam 24-27)
stimulation of secretion of ACTH and β-END-LI (testing by the general procedure), in words [2]: stimulate the secretion of ACTH and β-END-LI | lowering of blood pressure when administered peripherally, in words [3]: very significant lowering of blood pressure

(cyclo 29-32)[D-Leu^11, Nle^17, Glu^29, Lys^32 ]-sauvagine [Example 3 C]
stimulation of secretion of ACTH and β-END-LI (testing by the general procedure), in words [2]: stimulates the secretion of ACTH and β-END-LI | in vitro potency to stimulate secretion of ACTH relative to the Standard [2]: about 5.73 (2.61-13.51) times | lowering of blood pressure when administered peripherally, in words [3]: very significant lowering of blood pressure

(cyclo 30-33)[Ac-Agl(Me,Ac)^7, D-Phe^12, Nle^21,38, Glu^30, Lys^33 ]-r/hCRF(7-41) [Example 19 G]
stimulation of secretion of ACTH and β-END-LI on administration of the peptide, in words [4]: stimulates the secretion of ACTH and β-END-LI | in vitro potency to stimulate secretion of ACTH relative to the Standard [2]: about 3.4 times

(cyclo 30-33)[Ac-D/L-Agl(Me,For)^7, D-Phe^12, Nle^21,38, Glu^30, Lys^33 ]-r/hCRF(7-41) [Example 19 D]
stimulation of secretion of ACTH and β-END-LI on administration of the peptide, in words [4]: stimulates the secretion of ACTH and β-END-LI | in vitro biopotency, comparison in words [2]: less potent than the Standard

(cyclo 30-33)[Ac-D/L-Agl^7, D-Phe^12, Nle^21,38, Glu^30, Lys^33 ]-r/hCRF(7-41) [Example 19]
stimulation of secretion of ACTH and β-END-LI on administration of the peptide, in words [4]: stimulates the secretion of ACTH and β-END-LI

(cyclo 30-33)[Ac-D/L-MeAgl^7, D-Phe^12, Nle^21,38, Glu^30, Lys^33 ]-r/hCRF(7-41) [Example 19 B]
stimulation of secretion of ACTH and β-END-LI on administration of the peptide, in words [4]: stimulate the secretion of ACTH and β-END-LI | in vitro biopotency, comparison in words [2]: less potent than the Standard

(cyclo 30-33)[Ac-MeAgl(For)^7, D-Phe^12, Nle^21,38, Glu^30, Lys^33 ]-r/hCRF(7-41) [Example 19 E]
stimulation of secretion of ACTH and β-END-LI on administration of the peptide, in words [4]: stimulates the secretion of ACTH and β-END-LI

(cyclo 30-33)[Ac-Pro^4, D-Phe^12, CML^14, Nle^21,38, Glu^30, D-His^32, Lys^33 ]-r/hCRF(4-41) [Example 9 A]
stimulation of secretion of ACTH and β-END-LI on administration of the peptide, in words [4]: stimulates the secretion of ACTH and β-END-LI | lowering of blood pressure on iv injection, in words [3]: lowers blood pressure

(cyclo 30-33)[Ac-Pro^4, D-Phe^12, CML^15, Nle^21,38, Glu^30, D-His^32, Lys^33 ]-r/hCRF(4-41) [Example 9]
stimulation of secretion of ACTH and β-END-LI on administration of the peptide, in words [4]: stimulates the secretion of ACTH and β-END-LI | lowering of blood pressure on iv injection, in words [3]: lowers blood pressure

(cyclo 30-33)[Ac-Pro^4, D-Phe^12, CML^17, Nle^21,38, Glu^30, D-His^32, Lys^33 ]-r/hCRF (4-41) [Example 9 E]
stimulation of secretion of ACTH and β-END-LI on administration of the peptide, in words [4]: stimulates the secretion of ACTH and β-END-LI | lowering of blood pressure on iv injection, in words [3]: lowers blood pressure

(cyclo 30-33)[Ac-Pro^4, D-Phe^12, CML^19, Nle^21,38, Glu^30, D-His^32, Lys^33 ]-r/hCRF (4-41) [Example 9 B]
stimulation of secretion of ACTH and β-END-LI on administration of the peptide, in words [4]: stimulates the secretion of ACTH and β-END-LI | lowering of blood pressure on iv injection, in words [3]: lowers blood pressure

(cyclo 30-33)[Ac-Pro^4, D-Phe^12, Nle^21,38, CML^27, Glu^30, D-His^32, Lys^33 ]-r/hCRF(4-41) [Example 9 C]
stimulation of secretion of ACTH and β-END-LI on administration of the peptide, in words [4]: stimulates the secretion of ACTH and β-END-LI | lowering of blood pressure on iv injection, in words [3]: lowers blood pressure

(cyclo 30-33)[Ac-Pro^4, D-Phe^12, Nle^21,38, Glu^30, D-His^32, Lys^33 ]-oCRF(4-41) [Example 3]
stimulation of secretion of ACTH and β-END-LI (testing by the general procedure), in words [2]: highly stimulates the secretion of ACTH and β-END-LI | lowering of blood pressure when administered peripherally, in words [3]: very significant lowering of blood pressure

(cyclo 30-33)[Ac-Pro^4, D-Phe^12, Nle^21,38, Glu^30, D-His^32, Lys^33, CML^37 ]-r/hCRF(4-41) [Example 9 D]
stimulation of secretion of ACTH and β-END-LI on administration of the peptide, in words [4]: stimulates the secretion of ACTH and β-END-LI | lowering of blood pressure on iv injection, in words [3]: lowers blood pressure

(cyclo 30-33)[Ac-Pro^4, D-Pro^5, D-Phe^12, Nle^21,38, CML^27, Glu^30, D-His^32, Lys^33 ]-r/hCRF(4-41) [Example 9 C D-Pro^5 analog]
stimulation of secretion of ACTH and β-END-LI on administration of the peptide, in words [4]: stimulates the secretion of ACTH and β-END-LI | in vitro potency to stimulate secretion of ACTH relative to the Standard [2]: about 7 times

(cyclo 30-33)[Ac-Pro^4,D-Phe^12, Nle^21,38, Glu^30, D-Amp^32, Lys^33 ]-r/hCRF(4-41) [Example 6 D]
stimulation of secretion of ACTH and β-END-LI on administration of the peptide, in words [4]: stimulates the secretion of ACTH and β-END-LI | lowering of blood pressure on iv injection, in words [3]: lowers blood pressure

(cyclo 30-33)[Ac-Ser(OMe)^7, D-Phe^12, Nle^21,38, Glu^30, Lys^33 ]-r/hCRF(7-41) [Example 19 I]
stimulation of secretion of ACTH and β-END-LI on administration of the peptide, in words [4]: stimulates the secretion of ACTH and β-END-LI

(cyclo 30-33)[Ac-Ser^7, D-Phe^12, CML^18,27, Nle^21,38, Glu^30, Lys^33 ]-r/hCRF(7-41) [Example 20 C]
stimulation of secretion of ACTH and β-END-LI on administration of the peptide, in words [4]: stimulates the secretion of ACTH and β-END-LI | lowering of blood pressure on iv injection, in words [3]: lowers blood pressure

SEDPP[Nle]SIDLT[dF]H[Nle]LRN[Nle]IHRAK[Nle]EGEREEA[dQ]KNRNLLDEV-NH2 (lactam 30-33) [Example 3 H, (cyclo 30-33)[Nle^6,14,18,24, D-Phe^12, Glu^30, D-Gln^32, Lys^33]-flounder urotensin]
stimulation of secretion of ACTH and β-END-LI (testing by the general procedure), in words [2]: stimulates the secretion of ACTH and β-END-LI | lowering of blood pressure when administered peripherally, in words [3]: very significant lowering of blood pressure

SEEPP[Nle]SIDLT[dF]H[Nle]LRN[Nle]IHRAK[Nle]EGEREEA[dL]KNRNLLDEV-NH2 (lactam 30-33) [Example 3 E, (cyclo 30-33)[Nle^6,14,18,24, D-Phe^12, Glu^30, D-Leu^32, Lys^33]-maggy urotensin]
stimulation of secretion of ACTH and β-END-LI (testing by the general procedure), in words [2]: stimulates the secretion of ACTH and β-END-LI | lowering of blood pressure when administered peripherally, in words [3]: very significant lowering of blood pressure

SEEPP[Nle]SIDLT[dF]H[Nle]LRN[Nle]IHRAK[Nle]EGEREEA[dL]KNRNL[Nle]DEV-NH2 (lactam 30-33) [Example 3 G, (cyclo 30-33)[Nle^6,14,18,24,381 D-Phe^12 Glu^301 D-Leu^32, Lys^33]-sole urotensin]
stimulation of secretion of ACTH and β-END-LI (testing by the general procedure), in words [2]: stimulates the secretion of ACTH and β-END-LI | lowering of blood pressure when administered peripherally, in words [3]: very significant lowering of blood pressure
